How the values were obtained:
[1] = target: T1, AMPK protein (recombinant α1β1γ2) (Homo sapiens, UniProt Q13131+Q9Y478); assay: AMPK enzymatic activity (Delfia, AMARA peptide substrate); assay type: biochemical; conditions: compound 30 μM vs AMP 30 μM; 125 μM ATP; ratio 90% or higher = direct activator
T1 construct: made in house; host or cells: E. coli
In short: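 Human α1β1γ2 AMPK expressed in E. coli, reactivated in vitro by LKB1, assayed in 50 mM Hepes pH 7.4 with 125 μM ATP and AMARA peptide for 30 min at room temperature; phosphorylation detected by Delfia anti-phosphoserine antibody. Activity = % of basal control at 30 μM compound relative to that of 30 μM AMP.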

H-2 Kb cells = assay: Glucose uptake in H-2 Kb cells (in vitro cellular test); assay type: cell-based, mouse; conditions: H-2 Kb cells differentiated in muscle, 4 hours incubation, 2-deoxy-D-[1,2 3H] glucose uptake 10 min
Experimental: Glucose Uptake in H-2 Kb Cells (In Vitro Cellular Test)
The following cellular test allows the determination of the effect of AMPK activators such as compounds of formula (I) onto glucose uptake in a muscle cellular model.
H-1-2 Kb cells derived from heterozygous H-2 Kb tsA58 transgenic mouse were grown in 24-well in plates coated with matrigel and were cultured at 33° C. for 4 days under permissive conditions, as described previously by Fryer et al. (Diabetes 49 (12): 1978, 2000).
For differentiation in muscle, cells were switched to non-permissive culture conditions (37° C. in the absence of interferon-γ). After 3 days, cells were incubated for 4 hours in DMEM 1 g/l glucose culture medium containing different concentrations of the tested molecules. Then glucose uptake was measured by incubating the cells for 10 min with radiolabelled 2-deoxy-D-[1,2 ^3H] glucose. Glucose uptake was terminated by rapidly washing the plates 2 times with ice-cold NaCl 0.9%. The cells were then solubilized in 0.1N NaOH for 30 min. Radioactivity was determined by liquid scintillation counting.
N°: Number of the molecule
Activity (table III): Concentration of compound (I) for a glucose uptake equal or higher to glucose uptake induced by insulin (170 nM)
^++ or **concentration of compound (I) ≦10 micro Molar
^+ or *concentration of compound (I) >10 micro Molar

T1 sequence (Q13131 whole entry): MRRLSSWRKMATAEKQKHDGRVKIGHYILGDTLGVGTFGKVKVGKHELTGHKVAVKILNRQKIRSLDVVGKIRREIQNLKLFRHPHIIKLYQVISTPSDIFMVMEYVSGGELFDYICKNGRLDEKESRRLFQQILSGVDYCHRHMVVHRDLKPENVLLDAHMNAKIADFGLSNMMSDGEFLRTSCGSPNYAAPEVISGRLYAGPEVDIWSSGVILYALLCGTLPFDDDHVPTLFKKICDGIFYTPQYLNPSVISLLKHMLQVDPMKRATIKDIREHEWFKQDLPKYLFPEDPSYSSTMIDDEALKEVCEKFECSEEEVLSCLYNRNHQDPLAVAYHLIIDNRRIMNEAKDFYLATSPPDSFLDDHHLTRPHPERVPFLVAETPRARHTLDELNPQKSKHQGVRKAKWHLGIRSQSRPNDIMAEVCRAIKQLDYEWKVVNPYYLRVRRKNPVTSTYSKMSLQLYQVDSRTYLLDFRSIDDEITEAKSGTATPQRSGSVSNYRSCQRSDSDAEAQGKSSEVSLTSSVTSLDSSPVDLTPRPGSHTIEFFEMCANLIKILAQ
T1 sequence (Q9Y478 whole entry): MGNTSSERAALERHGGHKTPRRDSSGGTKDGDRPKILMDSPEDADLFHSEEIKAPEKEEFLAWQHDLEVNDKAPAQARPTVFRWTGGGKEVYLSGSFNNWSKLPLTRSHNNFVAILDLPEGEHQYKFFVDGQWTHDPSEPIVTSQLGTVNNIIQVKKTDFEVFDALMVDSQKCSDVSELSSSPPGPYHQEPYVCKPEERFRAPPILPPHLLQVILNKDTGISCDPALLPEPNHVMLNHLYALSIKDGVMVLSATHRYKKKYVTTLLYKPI
T1 sequence (Q9UGJ0 whole entry partner): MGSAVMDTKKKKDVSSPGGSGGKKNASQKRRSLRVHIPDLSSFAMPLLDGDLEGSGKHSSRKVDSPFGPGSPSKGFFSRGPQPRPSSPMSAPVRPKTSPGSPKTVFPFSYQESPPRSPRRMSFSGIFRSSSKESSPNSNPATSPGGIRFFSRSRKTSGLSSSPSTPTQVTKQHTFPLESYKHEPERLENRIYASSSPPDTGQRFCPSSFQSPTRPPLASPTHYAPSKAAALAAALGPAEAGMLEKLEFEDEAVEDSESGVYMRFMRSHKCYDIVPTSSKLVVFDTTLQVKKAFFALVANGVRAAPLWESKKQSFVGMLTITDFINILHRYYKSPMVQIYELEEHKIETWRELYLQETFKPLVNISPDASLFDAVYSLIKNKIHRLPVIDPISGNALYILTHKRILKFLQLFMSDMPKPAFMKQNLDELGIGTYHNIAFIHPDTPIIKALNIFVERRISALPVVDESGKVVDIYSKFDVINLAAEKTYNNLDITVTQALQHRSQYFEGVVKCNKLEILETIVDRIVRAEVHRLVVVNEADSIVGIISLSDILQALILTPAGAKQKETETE

activity: Ratio between the % of control (basal activity) of compound of formula (I) at 30 μM and the % of control (basal activity) of AMP at 30 μM [1] [%]	Compound	Activity (table III): Concentration of compound (I) for a glucose uptake equal or higher to glucose uptake induced by insulin (170 nM) (H-2 Kb cells)
120	COc1cccc(-c2c(O)c3c(-c4ccccc4)c(Cl)sc3[nH]c2=O)c1 [Compound 149]	** (^++ or **concentration of compound (I) ≦10 micro Molar)
193	Cc1ccc(-c2c(Cl)sc3[nH]c(=O)c(-c4cccc(C(=O)O)c4)c(O)c23)c(O)c1 [Compound 192]	++ (^++ or **concentration of compound (I) ≦10 micro Molar)
146	CCCc1ccc(-c2c(Cl)sc3[nH]c(=O)c(-c4ccccc4)c(O)c23)cc1 [Compound 183]	+ (^+ or *concentration of compound (I) >10 micro Molar)
245	Cc1ccc(-c2c(O)c3c(-c4ccccc4)c(Cl)sc3[nH]c2=O)cc1 [Compound 174]	+ (^+ or *concentration of compound (I) >10 micro Molar)
189	Cc1ccc(-c2csc3[nH]c(=O)c(-c4ccc(F)cc4)c(O)c23)c(O)c1F [Compound 204]	+ (^+ or *concentration of compound (I) >10 micro Molar)
136	O=c1[nH]c2sc(Cl)c(-c3ccc(F)cc3O)c2c(O)c1-c1ccccc1 [Compound 111]	* (^+ or *concentration of compound (I) >10 micro Molar)
118	COc1ccc(-c2c(Cl)sc3[nH]c(=O)c(-c4ccccc4)c(O)c23)c(F)c1 [Compound 115]	** (^++ or **concentration of compound (I) ≦10 micro Molar)
559	CCc1ccc(-c2c(Cl)sc3[nH]c(=O)c(-c4ccccc4)c(O)c23)cc1 [Compound 181]	++ (^++ or **concentration of compound (I) ≦10 micro Molar)
174	O=c1[nH]c2sc(Cl)c(-c3ccccc3)c2c(O)c1-c1cccs1 [Compound 168]	++ (^++ or **concentration of compound (I) ≦10 micro Molar)
200	O=c1[nH]c2sc(Cl)c(-c3ccc(O)c(F)c3)c2c(O)c1-c1ccccc1 [Compound 109]	** (^++ or **concentration of compound (I) ≦10 micro Molar)
297	CCc1ccc(-c2c(Cl)sc3[nH]c(=O)c(-c4ccccc4)c(O)c23)c(O)c1 [Compound 209]	++ (^++ or **concentration of compound (I) ≦10 micro Molar)
113	O=c1[nH]c2sc(Br)c(-c3ccccc3)c2c(O)c1-c1ccccc1 [Compound 161]	** (^++ or **concentration of compound (I) ≦10 micro Molar)
153	O=c1[nH]c2sc(Cl)c(-c3ccccc3)c2c(O)c1-c1ccc(F)cc1 [Compound 172]	+ (^+ or *concentration of compound (I) >10 micro Molar)
160	O=c1[nH]c2sc(Cl)c(-c3ccccc3)c2c(O)c1-c1ccc(Cl)cc1 [Compound 173]	++ (^++ or **concentration of compound (I) ≦10 micro Molar)
143	O=c1[nH]c2sc(Cl)c(-c3ccccc3O)c2c(O)c1-c1ccccc1 [Compound 121]	* (^+ or *concentration of compound (I) >10 micro Molar)
101	Cc1cccc(-c2c(Cl)sc3[nH]c(=O)c(-c4ccccc4)c(O)c23)c1 [Compound 125]	** (^++ or **concentration of compound (I) ≦10 micro Molar)
121	O=c1[nH]c2sc(Cl)c(-c3ccccc3)c2c(O)c1-c1cccc(O)c1 [Compound 148]	** (^++ or **concentration of compound (I) ≦10 micro Molar)
117	COc1cccc(-c2csc3[nH]c(=O)c(-c4ccccc4)c(O)c23)c1 [Compound 47]	* (^+ or *concentration of compound (I) >10 micro Molar)
167	O=c1[nH]c2sc(Cl)c(-c3ccc4c(Cl)cccc4c3O)c2c(O)c1-c1ccccc1 [Compound 184]	++ (^++ or **concentration of compound (I) ≦10 micro Molar)
96	COc1ccc(-c2c(O)c3c(-c4ccccc4)csc3[nH]c2=O)cc1 [Compound 19]	* (^+ or *concentration of compound (I) >10 micro Molar)
126	COc1ccc(-c2c(O)c3c(-c4ccccc4)c(C)sc3[nH]c2=O)cc1 [Compound 13]	* (^+ or *concentration of compound (I) >10 micro Molar)
202	COc1cccc(-c2c(O)c3c(-c4ccccc4)csc3[nH]c2=O)c1 [Compound 23]	* (^+ or *concentration of compound (I) >10 micro Molar)
183	COc1ccc(-c2c(O)c3c(-c4ccc(F)cc4O)c(Cl)sc3[nH]c2=O)cc1 [Compound 212]	+ (^+ or *concentration of compound (I) >10 micro Molar)
196	O=c1[nH]c2sc(Cl)c(-c3ccccc3)c2c(O)c1-c1ccsc1 [Compound 169]	++ (^++ or **concentration of compound (I) ≦10 micro Molar)
192	Cc1ccc(-c2c(O)c3c(-c4ccc5ccccc5c4O)c(Cl)sc3[nH]c2=O)cc1 [Compound 186]	++ (^++ or **concentration of compound (I) ≦10 micro Molar)
410	N#Cc1sc2[nH]c(=O)c(-c3ccccc3)c(O)c2c1-c1ccccc1 [Compound 9, 2-cyano-3,5-diphenyl-4-hydroxy-6,7-dihydro-thieno[2,3-]pyridin-6-one]	* (^+ or *concentration of compound (I) >10 micro Molar)
123	O=c1[nH]c2sc(Cl)c(-c3ccc(F)cc3)c2c(O)c1-c1ccccc1 [Compound 140]	** (^++ or **concentration of compound (I) ≦10 micro Molar)
488	O=c1[nH]c2sc(Cl)c(-c3ccc4ccccc4c3O)c2c(O)c1-c1ccccc1 [Compound 136]	** (^++ or **concentration of compound (I) ≦10 micro Molar)
